Patent US5756121A, “Antibiotic formulation and use for drug resistant infections” (NeXstar Pharmaceuticals, Inc., priority 1995, dated 1998)
Where “and” joins values, the source holds several entries; their conditions need not be identical. Equal entries are not always repeated.

How the values were obtained:
[1] = test system: MAC (101, type 1); assay: Treatment of MAC-infected beige mice, first experiment (organism burden in spleen, liver, lung); assay type: in vivo
Description: The testing of liposome encapsulated amikacin for the treatment of MAC was performed using a murine model. Beige mice (C57B1/6bg^j /bg^j) were infected with MAC (101, type 1). The mice were infected by injection of 1×10^7 Colony Forming Units (cfu) in the mouse tail vein (i.v.). Three experiments were performed. In the first experiment, 40, 80 and 120 milligrams of amikacin (liposomal and free) per kilogram of mouse body-weight was given i.v. daily for 5 days, beginning 7 days after infection. The animals were sacrificed 5 days after treatment was completed and the liver, lung and spleen tissue were plated. Quantitation of organisms in liver, spleen and lung tissue was performed. The cfu were determined by growth on Middlebrook 7h11 agar plates. Untreated and empty liposomes were used as controls.
The liposomes were prepared as in Example 1. This experiment was performed in two identical parts. The liposomes in the first part were of an average size of 49.8 nm and the average size of the liposomes in the second part were 73.7 nm (mean diameter). The amikacin concentration was either 15.0 mg/ml or 13.21 mg/ml and the total lipid concentration was either 121 mg/ml or 55.7 mg/ml respectively (drug to lipid ratios: 0.123, 0.24). Free drug for all experiments was prepared in the same buffer that the liposomal formulations were contained in.

[2] = test system: Pseudomonas aeruginosa; assay: Efficacy and toxicity in Pseudomonas infected mice (mortality); assay type: in vivo, Pseudomonas aeruginosa (clinical isolate) in CF-1 mice
Description: The efficacy and toxicity of liposomal amikacin in Pseudomonas infected mice was tested. CF-1 mice were used (females, 6-8 weeks old). The mice were obtained from Jackson Labs. A clinical isolate of Pseudomonas aeruginosa was obtained on a Mueller Hinton/MacConkey blood agar plate. The organisms were transferred to a Mueller Hinton plate and grown for 24 hours. Colonies were transferred to saline and grown for 48 hours. The samples were frozen in saline containing 15% fetal calf serum at 1×10^8 organisms/ml (MacFarland Standard). The colonies were stored at -70° C. The colonies were thawed and grown in a Mueller Hinton plate for 24 hours. The bacteria were adjusted to 8×10^6 organisms/ml in saline containing talc (62.5 mg/ml) and 1 ml was injected intraperitoneal. A culture of inoculum on MH agar for 24 hours determined that approximately 7×10^6 cfu were delivered per mouse. Liposomal amikacin and empty liposomes were prepared as set out in Example 2. […] The lipid concentration was 95.31 mg/ml and the amikacin concentration was 23.54 mg/ml (0.25 drug/lipid ratio). The pH of the solution containing the formulation was 7.31. […] The concentration of the free amikacin solution was 23.54 mg/ml. The pH of the solution containing the liposomes was 7.33.
Mice were treated with 40 mg/kg (drug per body-weight), 80 mg/kg, 120 mg/kg and 240 mg/kg of liposomal amikacin. Mice were also treated with 40 mg/kg, 80 mg/kg, and 120 mg/kg of free amikacin. The drugs were administered intravenously in the caudal vein. Two doses were given; one at four hours after infection and one at twenty-four hours after infection.

[3] = in vivo; set-up: species or system mouse (C57B1/6); conditions: mouse
Description: Amikacin content was measured in mouse (C57B1/6, females 2-3 months old) plasma after injection (i.v.) of free amikacin or liposomal amikacin (100 mg/kg). Liposomal amikacin was prepared as described in Example 2. Blood samples were obtained at various time intervals. The samples were collected by removing 100 microliters of blood, retroorbitally, from nonanesthetized mice. The samples were collected in heparinized capillary pipets which were plugged with modeling clay. The samples were centrifuged at 3250 rpm (20 cm rotor) for 10 minutes. The samples were analyzed using a radioimmunoassay (Diagnostic Products). The liposomal amikacin formulation contained liposomes with an average size of 43.6 nm (median diameter). The amikacin concentration was 10.09 mg/ml and the total lipid concentration was 56.8 mg/ml (drug to lipid ratio […]).

[4] = test system: M. tuberculosis, drug susceptible strain H37RV; assay: Activity against drug susceptible TB in infected human monocyte-derived macrophages; assay type: cell-based, Mycobacterium tuberculosis (in human macrophages); conditions: for CFU: duplicate values
[5] = mice, 150 mg/kg; known in the art; cited from earlier work

NCC[C@H](O)C(=O)N[C@@H]1C[C@H](N)[C@@H](O[C@H]2O[C@H](CN)[C@@H](O)[C@H](O)[C@H]2O)[C@H](O)[C@H]1O[C@H]1O[C@H](CO)[C@@H](O)[C@H](N)[C@H]1O [amikacin]
Lung log cfu/gram ([1]; 40 mg/kg i.v. daily for 5 days): 6.16 log
Lung log cfu/gram ([1]; 80 mg/kg i.v. daily for 5 days): 6.11 log
Lung log cfu/gram ([1]; 120 mg/kg i.v. daily for 5 days): 6.00 log
Mortality #died/#tested ([2]; 40 mg/kg i.v., two doses (4 h and 24 h after infection), 24 hours post infection): 1/4
Mortality #died/#tested ([2]; 40 mg/kg i.v., two doses, 30 hours post infection): 1/4
Mortality #died/#tested ([2]; 40 mg/kg i.v., two doses, 48 hours post infection): 1/4
Mortality #died/#tested ([2]; 40 mg/kg i.v., two doses, 72 hours post infection): 1/4
Mortality #died/#tested ([2]; 80 mg/kg i.v., two doses (4 h and 24 h after infection), 24 hours post infection): 0/6
Mortality #died/#tested ([2]; 80 mg/kg i.v., two doses, 30 hours post infection): 0/6
Mortality #died/#tested ([2]; 80 mg/kg i.v., two doses, 48 hours post infection): 0/6
Mortality #died/#tested ([2]; 80 mg/kg i.v., two doses, 72 hours post infection): 0/6
Mortality #died/#tested ([2]; 120 mg/kg i.v., two doses (4 h and 24 h after infection), 24 hours post infection): 0/6
Mortality #died/#tested ([2]; 120 mg/kg i.v., two doses, 30 hours post infection): 0/6
Mortality #died/#tested ([2]; 120 mg/kg i.v., two doses, 48 hours post infection): 0/6
Mortality #died/#tested ([2]; 120 mg/kg i.v., two doses, 72 hours post infection): 0/6
Average plasma concentration of amikacin ([3]; 100 mg/kg i.v., 6 hours): none detected
concentration at 5 min ([3]; in vivo, iv, 100 mg/kg): 406 µg/mL
concentration at 0.25 h ([3]; in vivo, iv, 100 mg/kg): 106 µg/mL
concentration at 2 h ([3]; in vivo, iv, 100 mg/kg): 65 µg/mL
inhibition / killing of drug susceptible bacteria (in words) ([4]; 1 μg/ml): inhibited the growth of the bacteria
CFU ([4]; 1 μg/ml, day 4): 50 1 × 10^3 cfu per monolayer and 60 1 × 10^3 cfu per monolayer
CFU ([4]; 1 μg/ml, day 7): 900 1 × 10^3 cfu per monolayer and 800 1 × 10^3 cfu per monolayer
inhibition / killing of drug susceptible bacteria (in words) ([4]; 2 μg/ml, day 4): inhibition
CFU ([4]; 2 μg/ml, day 4): 20 1 × 10^3 cfu per monolayer
CFU ([4]; 2 μg/ml, day 7): 40 1 × 10^3 cfu per monolayer and 50 1 × 10^3 cfu per monolayer
inhibition / killing of drug susceptible bacteria (in words) ([4]; 4 μg/ml, day 4): killing at day 4
CFU ([4]; 4 μg/ml, day 4): 4 1 × 10^3 cfu per monolayer and 5 1 × 10^3 cfu per monolayer
CFU ([4]; 4 μg/ml, day 7): 1.5 1 × 10^3 cfu per monolayer and 3 1 × 10^3 cfu per monolayer
lethality (in words) [5]: will kill many of the mice injected
